Measurements taken from US6930184B2, “Functional fluorescent dyes” (3M Innovative Properties Company, priority 2002, dated 2005).

Key:
[1] = Solubility in acrylate monomer (fluorescence measurement); type: physicochemical
Protocol: Solubility of the dyes was determined in various acrylate monomers using standard fluorescence measurement techniques (SPEX Fluorolog-3 Spectrophotometer, SPEX Industries, Edison, N.J.).

Solubility in acetone = type: physicochemical; conditions: acetone added until no undissolved dye remained
Protocol: Solubility of the dyes in acetone was determined by weighing a small amount of dye into a jar and adding small aliquots of acetone until no undissolved dye remained.

[2] = acrylate monomer BMA (butyl methacrylate)
[3] = acrylate monomer LMA (lauryl methacrylate)

Compound | Solubility of dyes in acrylate monomers [1, 2] | Solubility of dyes in acrylate monomers [1, 3] | Solubility of dye in acetone (Solubility in acetone)
C=CC(=O)OCCn1c(=O)c2ccc3sc4ccccc4c4ccc(c1=O)c2c34 [AD-6] | 559 μg dye/mL of acrylate monomer | 227 μg dye/mL of acrylate monomer | 11.6 g acetone/mg of dye
C=CC(=O)OCCn1c(=O)c2ccc3sc4ccccc4c4ccc(c1=O)c2c34 [AD-7] | 301 μg dye/mL of acrylate monomer | 114 μg dye/mL of acrylate monomer | 0.83 g acetone/mg of dye
C=CC(=O)OCCOc1cc2c3ccccc3c(=O)c3ccc4c5ccccc5sc1c4c32 [AD-5] | – | – | 0.65 g acetone/mg of dye
C=CC(=O)OCCOc1cc2c3ccccc3c(=O)c3ccc4c5ccccc5sc1c4c32 [AD-4] | – | – | 11.0 g acetone/mg of dye
C=CC(=O)OCCn1c(=O)c2ccc3sc4ccccc4c4ccc(c1=O)c2c34 [AD-1] | 1217 μg dye/mL of acrylate monomer | 816 μg dye/mL of acrylate monomer | 0.83 g acetone/mg of dye
